The experiment relates to neutrophil migration across HUVEC. In words: Neutrophil transendothelial migration (TEM) restoration studies with PKC inhibitors in HUVEC. The following applies: for restoration of PMN TEM in response to LTB4 after PKC activator treatment: PKC inhibitor 30 min (1, 10, 100 nM) then 100 nM Bryostatin-1 1 h. The format is cell-based, human. On the procedure:
HUVEC were pretreated with G0-6983, a PKC inhibitor with dose dependent specificities for classical vs. novel PKC isoforms for 30 minutes prior to addition of Bryostatin-1 (100 nM) to block neutrophil migration. […] Neutrophil migration towards 100 nM LTB4 was initiated by adding LTB4 to the lower well.
Neutrophil Transendothelial Migration (TEM) Restoration Studies: HUVECs were pretreated with Go-6983 (1, 10, 100 nM), or Go-6976 (1, 10,100 nM) for 30 minutes, then spiked with 100 nM Bryostatin-1 for 1 hour. HUVECs previously nucleofected with PKC-δ, -ε, or control siRNA were just treated in Bryostatin-1 for 1 hour. HUVECs were washed three times and placed in a new plate containing either 500 IL 100 nM LTB4, or HBSS alone for control. Neutrophils were allowed to migrate for 3 h at 37° C. Migration was stopped by removing the inserts and migration was measured using the MPO assay.
Myeloperoxidase Assay: Neutrophil migration was measured using myeloperoxidase (MPO) analysis. Cell culture inserts were first removed, and plates were spun at 1,500 RPM for 5 min. The supernatant was removed, and MPO activity was measured using TMB/peroxide as chromogen. The reaction was stopped with sulfuric acid and absorbance was read at 450 nm using a microplate reader. All experiments were performed n=6. Data was expressed as “% neutrophil migration”, which allowed cumulative statistical analysis to be done and account for unpreventable batch-to-batch variations.

Each structure is given as a SMILES string.

With `CN(C)CCCn1cc(C2=C(c3c[nH]c4ccccc34)C(=O)NC2=O)c2ccccc21` [GF10923X], the “restoration of PMN TEM in response to LTB4 after PKC activator treatment” value (shortened to “restoration of PMN TEM in response”) was “did not restore PMN TEM”. For `COc1ccc2c(c1)c(C1=C(c3c[nH]c4ccccc34)C(=O)NC1=O)cn2CCCN(C)C` [Go-6983], the “restoration of PMN TEM in response” value was “dose dependently restored neutrophil migration”. Moreover, the “effect of inhibitor pretreatment on Bryostatin-1 mediated reduction in migration towards LTB4, 1 nM” value (1 nM inhibitor 30 min before 100 nM Bryostatin-1) was “but not by 1 nM G06983”. Also, under “10 or 100 nM inhibitor 30 min before 100 nM Bryostatin-1”, the “effect of inhibitor pretreatment on Bryostatin-1 mediated reduction in migration towards LTB4, 10 or 100 nM” value was “prevented”. Moreover, the “restoration of PMN TEM in response” value (listed as G0-6983) is reported as “dose dependently reversed”. Regarding `CC(=O)c1c(O)c(C)c(O)c(Cc2c(O)c3c(c(C(=O)/C=C/c4ccccc4)c2O)OC(C)(C)C=C3)c1O` [Rottlerin], the “restoration of PMN TEM in response” value was “did not restore PMN TEM”. Consider `CN[C@@H]1C[C@H]2O[C@@](C)([C@@H]1OC)n1c3ccccc3c3c4c(c5c6ccccc6n2c5c31)C(=O)NC4` [staurosporine], for which the “restoration of PMN TEM in response” value is reported as “did not restore PMN TEM”. Consider `Cn1c2ccccc2c2c3c(c4c5ccccc5n(CCC#N)c4c21)CNC3=O` [GO-6976], for which the “restoration of PMN TEM in response” value is recorded as “did not restore PMN TEM”.

The values above are taken from patent publication US20230139328A1, “DOSAGE FORMS FOR IMPROVING ORGAN TRANSPLANTATION, GRAFT VERSUS HOST DISEASE AND STEM CELLS TRANSPLANTS” (Aphios Corporation, priority 2020, published 2023).
